How the values were obtained:
[1] = clinical studies; cited from earlier work
[2] = Single-dosing pharmacokinetics test; format: in vivo, B-hPD-1/hPD-L1 female mice; settings: female, B-hPD-1/hPD-L1 (humanized), mouse, po; humanized mice, single dose of 100 mg/kg by gavage, plasma
Procedure: 24 6-week old B-hPD-1/hPD-L1 female mice (purchased from Biocytogen (Jiangsu) Gene Biotechnology Co., Ltd.) were taken and the test compound was dissolved in a solvent containing 5% DMSO, 60% PEG400 and 35% purified water. The compound I-6 and three control molecules, Example 17, Compound 14 (INCB086550) and Example 180 were dosed. The compound was administered by gavage in a single dose of 100 mg/kg and blood was collected through fundus vein plexus after administration. The time points for blood collection were 15 min, 30 min, 1 h, 2 h, 4 h, 8 h, 24 h, 32 h and 48 h. About 0.1 mL of blood was collected and centrifuged in a centrifuge tube (heparin sodium anticoagulation) at 5000 rpm for 5 min to separate plasma, and then frozen at −20° C. for testing. After the plasma sample was treated, the concentration of the compound in the plasma was determined by liquid chromatography-mass spectrometry (LC-MS/MS). The pharmacokinetic parameters were calculated using Phoenix WinNonlin 7.0 based on the average blood concentration data at different time points.

[3] = Repeated-dosing pharmacokinetics test; format: in vivo, B-hPD-1/hPD-L1 humanized female mice; settings: female, B-hPD-1/hPD-L1 (humanized), mouse, po; humanized mice, 50 mg/kg by gavage once a day for 12 days, plasma on day 12
Procedure: 24 6-week old B-hPD-1/hPD-L1 humanized female mice (purchased from Biocytogen (Jiangsu) Gene Biotechnology Co., Ltd.) were taken and the test compound was dissolved in a solvent containing 5% DMSO, 60% PEG400 and 35% purified water. The compound I-6 and three control molecules, Example 17, Compound 14 (INCB086550) and the aforementioned Example 180 were dosed. The compound was administered by gavage once a day in a dose of 50 mg/kg for 12 consecutive days, and blood was alternately collected through fundus vein plexus on day 12 of administration. The time points for blood collection were 15 min, 30 min, 1 h, 2 h, 4 h, 8 h, 24 h, 32 h and 48 h. About 0.1 mL of blood was collected and centrifuged in a centrifuge tube (heparin sodium for anticoagulation) at 5000 rpm for 5 min to separate plasma, and then frozen at −20° C. for testing. The concentration of the compound in the plasma was determined by liquid chromatography-mass spectrometry (LC-MS/MS). The pharmacokinetic parameters were calculated using Phoenix WinNonlin 7.0 based on the average blood concentration data at different time points.

| AUC(0-t) [2] [ng·h/mL] | MRT [2] [h] | half-life [2] [h] | AUC(0-t) [3] [ng·h/mL] | MRT [3] [h] | half-life [3] [h] | Compound | half time T1/2 [1] [h] |
| --- | --- | --- | --- | --- | --- | --- | --- |
|  |  |  |  |  |  | pembrolizumab: PD-1/PD-L1 antibody drug | 600 |
|  |  |  |  |  |  | nivolumab: PD-1/PD-L1 antibody drug | 605 |
| 19600 | 5.9 | 3.9 | 10600 | 5 | 3.7 | Cc1c(Nc2nccc3cc(CN4CC[C@@H](O)C4)cnc23)cccc1-c1cccc(-c2nc3cc(CN4CC[C@@H](C(=O)O)C4)cc(C#N)c3o2)c1C [Compound 14 (INCB086550)] |  |
| 118000 | 4.2 | 3.8 | 58800 | 4.6 | 3.9 | Cn1c(C(=O)Nc2cccc(-c3cccc(NC(=O)c4nc5c(n4C)CCN(CCC46CCC(C(=O)O)(CC4)C6)C5)c3Cl)c2Cl)nc2c1CCN(CCC13CCC(C(=O)O)(CC1)C3)C2 [Example 17] |  |
|  |  |  |  |  |  | atezolizumab: PD-1/PD-L1 antibody drug | 648 |

— patent US20230365590A1, “BIPHENYL COMPOUND AS IMMUNOMODULATOR, PREPARATION METHOD THEREFOR AND APPLICATION THEREOF” (SHENZHEN CHIPSCREEN BIOSCIENCES CO., LTD., priority 2020, published 2023)
